# Data as given in patent US20080108545A1, “Peptide Nucleic Acid Conjugates and Uses Thereof” (UNIVERSITY OF OTAGO, priority 2003, published 2008).
# What was measured:
# HNF4α pre-mRNA = experiment: RT-PCR of HNF4α mRNA, exon 9 skipping in BNL-CL2 liver cells; assay type: cell-based, mouse
# Description: A mouse liver cell line, BNL-CL2, was grown at 37° C. and 5% CO2 in humidified atmosphere in Dulbecco's Modified Eagle's Medium supplemented with 10% inactivated FBS, 100 units.mL−1 penicillin, and 100 μg.mL−1 streptomycin, but without sodium pyruvate. To culture the cells with PNA, cells were seeded into a 96-well-plate, followed 16 h later by addition of 1 μM TPP-fluPNA alone or in an aqueous solution of 150 μM Chloroquine, and cultured for another 70 h. Images were acquired using a Zeiss inverted confocal microscope with 488 nm excitation wavelength light for tracking the TPP-fluPNA. Mitochondria specific dye MitoTracker Red CMXRos was added into cultured medium 2 h before taking confocal images using 578 nm excitation wavelength light.
# Total RNA was extracted from cells cultured with either fluoresceinated or non-fluoresceinated TPP-PNA, or with PNA dissolved in 150 μM Chloroquine, or with medium controls for 24 h or 72 h. The concentration of extracted RNA was quantified using a NanoDrop spectrophotometer, and 1 μg of total RNA was reverse transcribed into cDNA using Invitrogen SuperScript III and random primers. […]. […]
# human fibroblasts = experiment: Confocal immunofluorescent microscopy of fixed fibroblasts; assay type: cell-based; conditions: 1 μM, 30 min, 1 h and up to 4 h
# Description: For immunocytochemistry trypsinised human fibroblasts (5,000 cells per well) were plated onto 13 mm diameter glass coverslips in 24 well plates overnight. Following incubation for 4 h at 37° C. with 1 μM TPP-PNA conjugates, cells were fixed with 4% paraformaldehyde (PFH) in TBS for 30 min, washed with TBS and incubated with 10% FCS/0.1% Triton X-100/TBS (TBST) for 10 min. The IgG fraction of anti-triphenylphosphonium serum (1:500) was diluted in TBST, then added and incubated overnight at 4° C. The IgG fraction of preimmune serum was used as a control. After washing with TBS (3×5 min) the cells were incubated with anti-rabbit IgG Oregon green fluorophore-conjugated secondary antibody diluted 1:100 in TBS for 15 min in the dark. The cells were washed in TBS and incubated for another 15 min with streptavidin conjugated CY3 (1:200, Molecular Probes) in the dark, to detect biotin. Cells were then washed in TBS, mounted in DABCO/PVA medium (15 g PVA, 15 g 1,4-diazabicyclo (2,2,2) octane in 30% glucerol in 0.1 M Tris, pH 8.5) and mounted onto coverslips. […]
# The localisation of TPP-PNA conjugate within human fibroblasts was also determined by fixing cells that had been incubated with TPP-PNA, PNA or without any additions for up to 4 h and visualising the localisation of the PNA by confocal immunofluorescent microscopy (FIG. 6). […]
# P388 cells = experiment: Gel/blot detection of PNA and phosphonium in fractions of conjugate-treated P388 cells; assay type: cell-based, mouse; conditions: after treatment with TPP-PNA, FIG. 5D
# Description: Cells (143B, human fibroblasts, COS-7, P388 and IMCD) were grown at 37° C. and 5% CO2 in humidified atmosphere in Dulbecco's modified Eagle's medium supplemented with 10% inactivated foetal calf serum (FCS). All cell culture media contained 100 units.mL^−1 penicillin, and 100 μg.mL^−1 streptomycin. Protein was quantitated by the bicinchoninic acid assay. Cells were incubated with 1 μM TPP-PNA or with PNA alone for the indicated times. The disulfide bond in the TPP-PNA is stable in the oxidizing extracellular environment but is labile in the reducing cytoplasmic mulieu (FIG. 1).
# For conjugate detection, 143B cell lysates treated with TPP-PNA conjugates (˜5 nmol) in 20 μL loading buffer (50 mM Tris, 4% SDS, 12% glycerol, 2% 2-mercaptoethanol, 0.01% coomassie brilliant blue) were separated on 18.5% Tris-tricine gels using a BioRad Mini Protean system (Schagger and von Jagow, 1987). For PAX-2 detection, P388 and IMCD cell lysates in loading buffer were resolved on 12.5% Tris-glycine gels (Laemmli, 1970). […]
# The P388 cells were treated as described before, the lysates were resolved on Tris-tricine gels and the TPP-fluPNA conjugates were detected using a GelDoc fluorescence imager. […]
# PAX2 mRNA = experiment: Down regulation of PAX2 protein expression (western blot) in P388 cells; assay type: cell-based, mouse; conditions: 1 μM; for PAX2 protein expression: over 4 days
# Description: Rabbit anti-PAX2 polyclonal antibody (Zymed) diluted 1:1000 in TBS, 0.1% fat free milk powder, 0.1% Tween-20 was used for PAX-2 detection following overnight incubation with the membrane. After 3×10 min washes in TBS, 0.1% Tween-20, horseradish peroxidase conjugated goat antirabbit IgG (1:10,000, Biorad) was used as a secondary antibody. To detect biotin, horse radish peroxidase conjugated extravidin (1:3,000, Sigma) was used. In both cases secondary antibody binding was carried out for 1 h at room temperature, followed by 3×10 min washes in TBS and visualized by chemiluminescence using a Pierce Super Signal R chemiluminescence substrate with Kodak X-OMAT™ AR imaging film.
# [1] = tested on: P388 leukemia cancer cells; experiment: General cell proliferation of treated P388 cells; assay type: cell-based, mouse; conditions: 1 μM
# Text: To investigate the biological effects of the anti-PAX2 TPP-fluPNA conjugate we used a mouse cell line that highly expresses the PAX2 protein. […] This is most likely due to the absence of the cation that effectively delivers the PNA to the cells.
substance,measurement,setting,value
"TPP-lysPNA(HNF4-α): Lys-GTCCCAGACGGT-Cys-COOH PNA targeting mouse HNF4α mRNA, conjugated with TBTP",Exon 9-skipped splice variant RT-PCR product,"HNF4α pre-mRNA; 1 μM in cell culture media for 70 h, no transfection reagent",A 352 bp RT-PCR product was observed
same,Exon 9-skipped splice variant RT-PCR product,HNF4α pre-mRNA; transfected using chloroquine,A 352 bp RT-PCR product was observed
Biotin-XX-GTTGGCTCTCT-X-Cys-CO2H [bioPNA],Uptake of unconjugated PNA,human fibroblasts,uptake (red) only after 4 h
thiobutyltriphenylphosphonium [TBTP],"Localisation of phosphonium cation, anti-phosphonium serum",P388 cells,detected in the mitochondrial fractions
"Fluoroscein-XX-TTCACACCCCCGTGCC-X-Cys-CO2H (5' fluorescein via linkers, 3' linker and cysteine, further chemistry not given here) [unmodified anti-PAX2 PNA, unconjugated fluoroscein-tagged PNA oligomer targeting human and mouse PAX2 mRNA, reference compound]",PAX2 protein expression,PAX2 mRNA,did not decrease PAX2 protein levels
"TPP-fluPNA(PAX-2): Fluoroscein-XX-TTCACACCCCCGTGCC-X-Cys-CO2H PNA targeting PAX2 mRNA, disulfide linked to thiobutyltriphenylphosphonium (all peptide nucleic acid (PNA); 5' fluorescein via linkers, 3' linker-Cys disulfide-linked to triphenylphosphonium)",Duration of inhibition of PAX2 expression,PAX2 mRNA,4 days
same,PAX2 protein expression,PAX2 mRNA,significant inhibition of PAX2 expression
same,General cell proliferation,[1],did not affect general cell proliferation
